{
  "source": "patent US20240398813A1",
  "about": "“PHARMACEUTICAL COMPOSITION FOR PREVENTING OR TREATING OVERACTIVE BLADDER” (GWANGJU INSTITUTE OF SCIENCE AND TECHNOLOGY, priority 2021, published 2024)",
  "target": "T1, BKCa channels (rat KCNMA, rSlo α) (Rattus norvegicus, UniProt Q62976)",
  "T1 construct": "expressed in transfected cells; host or cells: Xenopus laevis oocytes injected with cRNA",
  "T1 sequence (Q62976 whole entry)": "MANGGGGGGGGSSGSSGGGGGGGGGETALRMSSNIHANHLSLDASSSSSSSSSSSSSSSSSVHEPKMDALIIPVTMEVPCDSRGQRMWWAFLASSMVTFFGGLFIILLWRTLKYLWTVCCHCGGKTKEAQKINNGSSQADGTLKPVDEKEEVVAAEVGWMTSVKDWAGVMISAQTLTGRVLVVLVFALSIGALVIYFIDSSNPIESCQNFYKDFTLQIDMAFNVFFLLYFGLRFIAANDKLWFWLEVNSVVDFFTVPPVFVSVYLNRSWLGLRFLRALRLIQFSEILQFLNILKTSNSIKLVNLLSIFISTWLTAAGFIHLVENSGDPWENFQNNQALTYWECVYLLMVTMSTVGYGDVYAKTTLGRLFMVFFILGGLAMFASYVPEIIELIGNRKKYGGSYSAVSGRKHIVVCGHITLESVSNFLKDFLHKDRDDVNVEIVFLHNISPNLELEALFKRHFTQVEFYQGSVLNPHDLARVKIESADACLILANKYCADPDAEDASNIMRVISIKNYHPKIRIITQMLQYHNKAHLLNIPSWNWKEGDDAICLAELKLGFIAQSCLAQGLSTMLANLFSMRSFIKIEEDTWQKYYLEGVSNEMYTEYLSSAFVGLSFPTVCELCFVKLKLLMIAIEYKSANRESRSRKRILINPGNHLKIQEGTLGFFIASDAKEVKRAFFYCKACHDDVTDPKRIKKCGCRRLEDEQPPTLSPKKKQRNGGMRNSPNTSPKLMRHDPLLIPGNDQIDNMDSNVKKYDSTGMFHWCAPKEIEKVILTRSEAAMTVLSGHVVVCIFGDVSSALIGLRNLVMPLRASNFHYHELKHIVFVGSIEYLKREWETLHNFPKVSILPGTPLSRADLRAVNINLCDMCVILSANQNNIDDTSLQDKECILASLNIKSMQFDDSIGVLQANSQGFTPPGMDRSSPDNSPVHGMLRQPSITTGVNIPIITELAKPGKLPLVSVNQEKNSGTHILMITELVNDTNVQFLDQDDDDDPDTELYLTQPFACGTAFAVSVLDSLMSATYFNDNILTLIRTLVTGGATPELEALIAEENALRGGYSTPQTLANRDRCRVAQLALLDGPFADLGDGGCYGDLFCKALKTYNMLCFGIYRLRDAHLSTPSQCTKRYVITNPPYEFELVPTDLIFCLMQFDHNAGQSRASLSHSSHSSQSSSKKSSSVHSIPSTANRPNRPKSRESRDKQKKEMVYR",
  "experiment": "Macroscopic current recording, outside-out patch clamp, BKCa channels expressed in Xenopus oocytes",
  "assay_type": "cell-based",
  "source_text": "The complete coding sequence (CDS) of each of rat KCNMA (rSlo α) (GenBank AF135265.1), KCNMB1 (rSlo 01) (GenBank FJ154955.1) and KCNMB4 (rSlo β4) (GenBank AY028605) was subcloned into pNBC2.0 or pNBC2.0. These vectors were designed to be expressed in Xenopus oocytes (Ha, T. S., Lim, H. H., Lee, G. E., Kim, Y. C., & Park, C. S. (2006). Electrophysiological characterization of benzofuroindole-induced potentiation of large-conductance Ca2+-activated K+ channels. Mol Pharmacol, 69(3), 1007-1014). The plasmid was linearized by NotI and complementary RNA (cRNA) was synthesized using the Ambion T7 mMESSAGE mMACHINE kit (Invitrogen, Carlsbad, CA, USA) according to the manufacturer's instructions. Xenopus laevis (KXRCR000001) was obtained from the Korea Xenopus Resource Center for Research (Chuncheon-si, Gangwon-do, Korea). Stage V-VI oocytes were surgically extracted from the ovarian lobes of X. laevis. A follicular cell layer was removed by culturing in Ca^2+-free oocyte Ringer's medium (86 mM NaCl, 1.5 mM KCl, 2 mM MgCl2 and 10 mM HEPES, pH 7.6) containing collagenase for 1.5 hours at room temperature. Oocytes without follicular layer were washed with ND-96 medium (96 mM NaCl, 2 mM KCl, 1.8 mM CaCl2), 1 mM MgCl2, 5 mM HEPES, […] gentamicin, pH 7.6). The prepared oocytes were stabilized overnight at 18° C. cRNA was injected into each oocyte (50 ng per oocyte) using a microdispenser (Drummond Scientific, Broomall, PA, USA). For co-expression of the β subunits, cRNA was mixed at a molar ratio of 1:12 (α:β) to induce sufficient co-assembly of the R subunits. After injection of cRNA, the oocytes were cultured in ND-96 medium for 1-3 days at 18° C. Before recording macroscopic currents, vitelline membranes of the oocytes were completely removed using fine forceps.\nAll macroscopic current recordings in the BKCa channels were performed using the gigaohm-seal patch-clamp method in an outside-out configuration (Ha et al., 2006). A patch pipette was made of borosilicate glass (WPI, Sarasota, FL, USA) and fire-polished by a resistance of 3-5 MQ. Ion currents were amplified using an Axopatch 200B amplifier (Molecular Devices). The currents were low-pass filtered at 1 kHz using a four-pole Bessel filter and digitized at a rate of 10 or 20 points/ms using a Digidata 1200A interface (Molecular Devices). The BKCa channels were activated by repeated voltage clamps at +100 mV or by voltage clamp pulses ranging from −80 to +200 mV with an increment of 10 mV. The resting potential was maintained at −100 mV. The recording solution contained 116 mM KOH, 4 mM KCl, 10 mM HEPES, and 5 mM EGTA (pH 7.2). The intracellular solution contained 3 μM Ca^2+ in the recording solution (pH 7.0). MaxChelator program was used to calculate the total amount of Ca^2+ to be added to the intracellular solution for obtaining free Ca^2+ at a concentration of 3 μM.\nThe commercial software Clampex 8.0 (Molecular Device) and Origin 9.1 (OriginLab Corp., Northampton, MA, USA) were used for data analysis and fitting of the macroscopic currents. A conductance-voltage (G-V) curve obtained from the external current was fitted by the Boltzmann equation [y=(Gmax−Gmin)/{1+exp[(V1/2−x)/k]}+Gmin]. Wherein k is RT/zF, and wherein R is a gas constant, T is a temperature, F is the Faraday's constant, and z is a gating charge. Gmax is the maximum conductivity and V1/2 is a voltage for half maximum conductivity. The concentration-dependent V1/2 shift was fitted by the Hill equation [y=AVi/2,max x^n/(EC50^n+x^n)]. Wherein ΔV1/2,max is a constant. EC50 is half the apparent maximum effective concentration and n is the Hill coefficient. By definition, the apparent dissociation constant KD was obtained by EC50^n. The association time constant (r association) was obtained by fitting the exponential equation [y=A exp(−x/τ)+C]. Wherein A and C are constants and τ is the time to reach (1−1/e) ( ? 63%) of the maximum current level. […]",
  "key": {"[1]": {"settings": "washout after 10 μM, double exponential fit"}},
  "data": [
    {"molecule": "Cc1cccc(NC(=O)c2sc(=S)n3c2[nH]c(=O)c2cc(Br)ccc23)c1", "note": "[TTQC-1, 7-bromo-5-oxo-1-thioxo-N-(m-tolyl)-4,5-dihydro-1H-thiazolo[3,4-a]quinazoline-3-carboxamide]", "values": [
      {"measurement": "effect on channel activation time constant (τ activation)", "setting": "10 μM", "result": "did not show significant changes"},
      {"measurement": "association time constant (τ association)", "setting": "10 μM, +100 mV pulses, 3 μM intracellular Ca2+", "result": "11.7 ± 1.77", "unit": "s"},
      {"measurement": "increase of channel deactivation time constant (τ deactivation)", "setting": "10 μM, at +200 mV", "result": 5.3, "unit": "times"},
      {"measurement": "half-activation voltage (V1/2)", "setting": "30 μM", "result": "37.9±7.50", "unit": "mV"},
      {"measurement": "increase of maximum conductance (Gmax) compared to vehicle (G0max)", "setting": "30 μM", "result": "1.4±0.11", "unit": "times"},
      {"measurement": "EC50", "setting": "0.1-30 μM, 3 μM intracellular Ca2+, read-out: apparent EC50 of V1/2 shift (Hill equation)", "result": 2.8, "unit": "µM"},
      {"measurement": "Hill coefficient n", "setting": "fit of V1/2 shift", "result": 2.0},
      {"measurement": "Afast (amplitude of fast dissociation component)", "setting": "washout after 10 μM", "result": "0.49±0.064"},
      {"measurement": "Aslow (amplitude of slow dissociation component)", "setting": "washout after 10 μM", "result": "0.53±0.054"},
      {"measurement": "dissociation time constant, fast component", "setting": "[1]", "result": "7.8 ± 1.10", "unit": "s"},
      {"measurement": "dissociation time constant, slow component", "setting": "[1]", "result": "136.2 ± 11.24", "unit": "s"}
    ]}
  ]
}
